Reference: US20250332173A1, “COMPOUNDS AND METHODS FOR MODULATING NUCLEIC ACID SPLICING” (REMIX THERAPEUTICS INC., priority 2021, published 2025)
Where two headings read alike, the source gives them in different places.

Assays:
MYB mRNA = assay: RT-qPCR splicing assay, MYB canonical junction (CJ) and alternative junction (AJ) mRNA; type: cell-based, human; details: Homo sapiens
Outline: (§1)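 Following a 24-hour incubation of A673 or K562 cells with serially diluted compound (3-fold steps, highest final 10 uM), the lysates undergo cDNA synthesis plus qPCR. Canonical and alternative junctions are each quantified against PPIA, GAPDH or GUSB.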

HTT mRNA = assay: RT-qPCR splicing assay, HTT canonical junction (CJ) and alternative junction (AJ) mRNA; type: cell-based, human; details: Homo sapiens
Outline: as §1

[1] = test system: K562 (human chronic myelogenous leukemia) cells; assay: Cell Titer Glo 2.0 cell viability assay; type: cell-based; details: Homo sapiens, K562, 72 h, K562 cells, 72 hours, Cell Titer Glo 2.0; read-out: K562 GI50
Target C [2] = assay: RT-qPCR splicing assay panel, Target C canonical junction (CJ) mRNA; type: cell-based, human; details: Homo sapiens; Table 5 panel; canonical junction qPCR; compound concentration having 50% response in CJ decrease; read-out: Target C IC50 (decrease in CJ mRNA levels)
Outline: (§2)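 Cells are plated (A673 allowed 24 h to adhere), dosed with an 11-point 3-fold series topping at 10 uM final, and incubated 24 h at 37 °C. Lysis is followed by cDNA synthesis and qPCR of the CJ transcript, normalized to a housekeeping gene.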

Target C [3] = assay: HiBiT protein abundance assay, Target C (Promega Nano-Glo HiBiT Lytic Detection System, knock-in K562 cell line); type: cell-based, human; details: Homo sapiens, K562, 24 h, HiBiT K562 cell line, 24 hours, top dose 10 μM; read-out: Effect on protein abundance, Target C (IC50 category)
Protocol: (§3) • Promega Nano-Glo HiBiT Lytic Detection System (cat #N3030) • Corning 384-well TC-treated microplates (cat #3570) • Synthego Engineered Cells Knock-In Clones
(§4) Cells were maintained in IMDM with 10% FBS. Before the assay, cells were diluted with […] growth media (IMDM+[…] media) and were seeded in a 384-well plate at a density of 10,000 cells/well (for each cell line listed in Table 5). Each compound was prepared as a 10-point 3-fold serial dilution in DMSO with the top dose at a final concentration of 10 μM in the well. Unmodified K562 cells were added at the previously specified density with DMSO to serve as an assay baseline and positive control (PC) and DMSO only with the respective modified cell lines was added to the negative control (NC) columns. Final DMSO concentration was kept at or below 0.25%. Treated cell plates were placed in an incubator at 37° C. with […] for 24 hours. After 24 hours, 25 μL of Complete HiBit Lytic reagent was added to each well at room temperature (e.g. one plate requiring 10 mL Lytic Buffer, 100 μL LgBiT Protein, 200 μL Lytic Substrate), shaken for 5 minutes at 600 RPM, then left to sit for 10 minutes for signal to stabilize before reading on a Spark Cyto plate reader (Tecan) with a 500 ms measurement time.
(§5) To determine compound effects on protein abundance of each target in Table 5, the percent response for each respective cell line was calculated at each compound concentration as follows:
(§6) For the normalized response at each concentration, a four-parameter logistical regression was fit to the data and the response was interpolated at the […] to determine a concentration for protein abundance at […] the untreated control.

SMN2 mRNA = assay: RT-qPCR splicing assay, SMN2 canonical junction (CJ) mRNA; type: cell-based, human; details: Homo sapiens; Table 5 panel; canonical junction qPCR; compound concentration having 50% response in CJ decrease; read-out: SMN2 IC50 (decrease in CJ mRNA levels)
Outline: as §2

MYB = assay: HiBiT protein abundance assay, MYB HiBiT K562 cell line; type: cell-based, human; details: HiBiT K562 cell line, 24 hours, top dose 10 μM; read-out: Effect on protein abundance, MYB (IC50 category)
Protocol: (§7) Compounds described herein were used to screen for effects on quantitative protein abundance using a HiBit assay system (Promega). Quantitative protein abundance was determined by measuring the protein levels of HiBit-tagged protein targets expressed in cell culture via luminescence using the Nano-Glo HiBiT Lytic Detection System, which uses a split complementation assay format to reconstitute NanoBiT enzyme to generate a luminescent signal. A protein abundance assay was developed such that endogenous protein targets could be modified with the HiBiT peptide tag and their abundance could be assessed after compound treatment. Briefly, K562 cell lines containing a HiBiT-modification were treated with various compounds described herein (e.g., compounds of Formulas (I), (II), (III), (IV), (V), (VI), (VII), (VIII), or (IX)). After treatment for 24 hours, the protein abundance of a specific target was determined by measuring luminescence.
as §3, §4, §5, §6

HTT = assay: HiBiT protein abundance assay, HTT HiBiT K562 cell line; type: cell-based, human; details: HiBiT K562 cell line, 24 hours, top dose 10 μM; read-out: Effect on protein abundance, HTT (IC50 category)
Protocol: as §7, §3, §4, §5, §6

SMILES | IC50 (MYB mRNA; Table 5 panel, canonical junction qPCR, compound concentration having 50% response in CJ decrease, read-out: MYB IC50 (decrease in CJ mRNA levels)) [µM] | IC50 (MYB mRNA; decrease in MYB canonical junction (CJ) mRNA, RT-qPCR, read-out: MYB CJ IC50) [µM] | IC50 (HTT mRNA; decrease in HTT canonical junction (CJ) mRNA, RT-qPCR, read-out: HTT CJ IC50) [µM] | IC50 (HTT mRNA; Table 5 panel, canonical junction qPCR, compound concentration having 50% response in CJ decrease, read-out: HTT IC50 (decrease in CJ mRNA levels)) [µM] | GI50 [1] [µM] | IC50 (Target C [2]) [µM] | IC50 (Target C [3]) [µM] | IC50 (SMN2 mRNA) [µM] | IC50 (MYB) [µM] | IC50 (HTT) [µM] | AC50 (MYB mRNA; increase in MYB alternative junction (AJ) mRNA, RT-qPCR, read-out: MYB AJ AC50) [µM] | AC50 (HTT mRNA; increase in HTT alternative junction (AJ) mRNA, RT-qPCR, read-out: HTT AJ AC50) [µM]
Cc1cn2cc(-c3cc(F)c4c(=O)n(C5CCNC5)cnc4c3)cc(F)c2n1 (stereo not drawn) [Compound 344] | 0.1 to 1 | 0.1 to 1 | 1 to 10 | 1 to 10 | 1 to 10 | 1 to 10 | > 10 | < 0.1 | – | – | 0.1 to 1 | 1 to 10
Cc1cn2nc(-c3cc(O)c4c(=O)n(C5CCNC6(CC6)C5)ccc4c3)cc(C)c2n1 (stereo not drawn) [Compound 466, 6-(2,8-dimethylimidazo[1,2-b]pyridazin-6-yl)-8-hydroxy-2-(4-azaspiro[2.5]octan-7-yl)isoquinolin-1(2H)-one] | – | – | – | – | < 0.1 | – | < 0.1 | – | < 0.1 | < 0.1 | – | –
Cc1cn2nc(-c3cc(C)c4c(=O)n([C@H]5CCNC6(CC6)C5)ncc4c3)cc(C)c2n1 [Compound 467] | – | – | – | – | 1 to 10 | – | 0.1 to 1 | – | 0.1 to 1 | 0.1 to 1 | – | –
Cc1cn2nc(-c3cc(C)c4c(=O)n([C@@H]5CCNC6(CC6)C5)ncc4c3)cc(C)c2n1 [Compound 468] | – | – | – | – | 0.1 to 1 | – | < 0.1 | – | < 0.1 | < 0.1 | – | –
Cc1c(O)c(-c2ccc3c(=O)n(C4CCNCC4)cnc3n2)cc2cn(C)nc12 [Compound 505, 7-(6-hydroxy-2,7-dimethyl-2H-indazol-5-yl)-3-(piperidin-4-yl)pyrido[2,3-d]pyrimidin-4(3H)-one] | – | – | – | – | 0.1 to 1 | – | 0.1 to 1 | – | 0.1 to 1 | 0.1 to 1 | – | –
COc1c(-c2ccc3c(=O)n(C4CCNCC4)cnc3n2)cc2cn(C)nc2c1C [Compound 506, 7-(6-methoxy-2,7-dimethylindazol-5-yl)-3-(piperidin-4-yl)pyrido[2,3-d]pyrimidin-4-one] | – | – | – | – | > 10 | – | > 10 | – | > 10 | > 10 | – | –

Second part, led by results:

IC50 (MYB mRNA; Table 5 panel, canonical junction qPCR, compound concentration having 50% response in CJ decrease, read-out: MYB IC50 (decrease in CJ mRNA levels)) [µM] | IC50 (MYB mRNA; decrease in MYB canonical junction (CJ) mRNA, RT-qPCR, read-out: MYB CJ IC50) [µM] | IC50 (HTT mRNA; decrease in HTT canonical junction (CJ) mRNA, RT-qPCR, read-out: HTT CJ IC50) [µM] | IC50 (HTT mRNA; Table 5 panel, canonical junction qPCR, compound concentration having 50% response in CJ decrease, read-out: HTT IC50 (decrease in CJ mRNA levels)) [µM] | GI50 [1] [µM] | IC50 (Target C [2]) [µM] | IC50 (Target C [3]) [µM] | IC50 (SMN2 mRNA) [µM] | IC50 (MYB) [µM] | IC50 (HTT) [µM] | SMILES | AC50 (MYB mRNA; increase in MYB alternative junction (AJ) mRNA, RT-qPCR, read-out: MYB AJ AC50) [µM] | AC50 (HTT mRNA; increase in HTT alternative junction (AJ) mRNA, RT-qPCR, read-out: HTT AJ AC50) [µM]
– | – | – | – | < 0.1 | – | < 0.1 | – | < 0.1 | < 0.1 | Cc1cn2nc(-c3cc(O)c4c(=O)n([C@H]5CCNC6(CC6)C5)ncc4c3)cc(C)c2n1 [Compound 469] | – | –
– | – | – | – | 0.1 to 1 | – | < 0.1 | – | 0.1 to 1 | < 0.1 | Cc1cn2nc(-c3cc(O)c4c(=O)n([C@@H]5CCNC6(CC6)C5)ncc4c3)cc(C)c2n1 [Compound 470] | – | –
– | – | – | – | 0.1 to 1 | – | < 0.1 | – | < 0.1 | < 0.1 | Cc1cn2nc(-c3cc(F)c4c(=O)n(C5CCNCC5)cnc4c3)cc(C#N)c2n1 [Compound 501] | – | –
– | – | – | – | > 10 | – | > 10 | – | > 10 | > 10 | Cc1cn2c(n1)CCC(c1cc(F)c3c(=O)n(C4CCNCC4)cnc3c1)C2 (stereo not drawn) [Compound 502, 5-fluoro-7-{2-methyl-5H,6H,7H,8H-imidazo[1,2-a]pyridin-6-yl}-3-(piperidin-4-yl)quinazolin-4-one] | – | –
– | – | – | – | 1 to 10 | – | 0.1 to 1 | – | < 0.1 | < 0.1 | Cc1cn2nc(-c3cc4ncn(C5CCNCC5)c(=O)c4cc3O)cc(C)c2n1 [Compound 503, 7-{2,8-dimethylimidazo[1,2-b]pyridazin-6-yl}-6-hydroxy-3-(piperidin-4-yl)quinazolin-4-one] | – | –
– | – | – | – | > 10 | – | > 10 | – | > 10 | > 10 | COc1cc2c(=O)n(C3CCNCC3)cnc2cc1-c1cc(C)c2nc(C)cn2n1 [Compound 504, 7-{2,8-dimethylimidazo[1,2-b]pyridazin-6-yl}-6-methoxy-3-(piperidin-4-yl)quinazolin-4-one] | – | –
